Measured values from patent US4499087A, “7-Phenyl-7-phenoxymethyl-hexahydro-1,4-oxazepines and their use” (BASF Aktiengesellschaft, priority 1982, dated 1985).
Counter-ions that a name gives are not always drawn.

Legend:
norepinephrine uptake = assay: Inhibition of norepinephrine uptake in rat brain synaptosomes (hippocampus, 3H norepinephrine); assay type: biochemical; conditions: for IC50: rat hippocampus synaptosomes, 3H norepinephrine about 10 nM, 37° C., read-out: Norepinephrine IC50 (inhibition of neurotransmitter uptake in synaptosomes); for inhibition of norepinephrine and serotonin uptake (in words): synaptosomes, both transmitters
Protocol: (§1) The action mechanism of a group of therapeutically much used antidepressants must be regarded as being the inhibition of the neuronal uptake of transmitter substances (norepinephrine and/or serotonin). These properties were utilized in biological test models for characterizing potential antidepressants (inhibition of neurotransmitter uptake in rat brain synaptosomes):
(§2) Hippocampus and cortex from rat brain were prepared, and were homogenized in 0.32M sucrose solution. By means of differential centrifuging, synaptosomes were obtained, and these were suspended in buffer solution. The synaptosomes are able actively to take up added neurotransmitter substances (eg. norepinephrine or serotonine) from the surrounding medium. It is possible to antagonize this process by uptake inhibitors, as a function of concentration. Various concentrations of the test substances were added to the synaptosomes, and the mixtures were then incubated with ^3 H norepinephrine (hippocampus) or ^3 H serotonin (cortex) at 37° C. The substrate concentration was about 10 nM. The uptake was terminated by diluting the mixture with ice-cooled buffer solution, after which the synaptosomes were separated off by centrifuging and the ^3 H activity in the sediment was measured. A blank value was determined by incubation at 0° C.
(§3) From the inhibitory values determined for various inhibitor concentrations compared with the control, the mean inhibitory concentration (IC50) was calculated by linear regression following logit-log transformation.

serotonin uptake = assay: Inhibition of serotonin uptake in rat brain synaptosomes (cortex, 3H serotonin); assay type: biochemical; conditions: 3H serotonin about 10 nM, 37° C., read-out: Serotonin IC50 (inhibition of neurotransmitter uptake in synaptosomes)
Protocol: as §1, §2, §3

| SMILES | IC50 (norepinephrine uptake) [nM] | IC50 (serotonin uptake) [nM] | inhibition of norepinephrine and serotonin uptake (in words) (norepinephrine uptake) |
| --- | --- | --- | --- |
| Clc1ccccc1OCC1(c2ccccc2)CCNCCO1 (stereo not drawn) [Example 2, 7-phenyl-7-(2-chlorophenoxymethyl)-hexahydro-1,4-oxazepine hydrochloride] | 2.8 | 460 | – |
| Clc1ccc(OCC2(c3ccccc3)CCNCCO2)cc1 (stereo not drawn) [Example 4, 7-phenyl-7-(4-chlorophenoxymethyl)-hexahydro-1,4-oxazepine] | 74 | 39 | inhibit the uptake of both transmitters at an equally low concentration |
| CN(C)CCCN1c2ccccc2CCc2ccccc21 [Imipramine, reference compound] | 14 | 130 | inhibits both norepinephrine uptake and serotonin uptake at low concentration |
| c1ccc(OCC2(c3ccccc3)CCNCCO2)cc1 (stereo not drawn) [Example 1, 7-phenyl-7-phenoxymethyl-hexahydro-1,4-oxazepine hydrochloride] | 15 | 190 | – |
| COc1ccc(OCC2(c3ccccc3)CCNCCO2)cc1.Cl (stereo not drawn) [Example 5, 7-phenyl-7-(4-methoxyphenoxymethyl)-hexahydro-1,4-oxazepine hydrochloride] | 86 | 100 | inhibit the uptake of both transmitters at an equally low concentration |
| CN1CCOC(COc2ccccc2Cl)(c2ccccc2)CC1 (stereo not drawn) [Example 7] | 98 | 300 | inhibit the uptake of both transmitters at an equally low concentration |
| COc1ccccc1OCC1(c2ccccc2)CCNCCO1 (stereo not drawn) [Example 3, 7-phenyl-7-(2-methoxyphenoxymethyl)-hexahydro-1,4-oxazepine hydrochloride] | 5.9 | 190 | – |
